A short description of data set [1]: Single dose po/sc bioavailability and elimination half-life study. In kind it is in vivo. The note with it: rat, plasma, female Sprague Dawley rats; for bioavailability: po. On the procedure: To evaluate the oral (po) and subcutaneous (sc) bioavailability of estetrol (E4) and to determine the elimination half-life, single dose studies were performed in female Sprague Dawley rats followed by frequent blood sampling over a 24 hours interval.
Female Sprague Dawley rats were equipped with a permanent silatic heart catheter, as described by Kuipers et al. (1985, Gastroenterology, 88, 403-411). Rats were allowed to recover from surgery for 5 days and were than administered 0.05, 0.5, or 5 mg/kg E4 in 0.5 ml arachis oil. For sc administration, E4 was injected in the neck area using a 1 ml syringe and 20 g needle. For po administration of E4, rats were lightly anaesthesized with halothene/N2O/O2 and E4 was directly applied intragastrically using a plastic stomach intubator. Blood samples were subsequently collected via the heart catheter in heparinized tubes at 0.5, 1, 2, 4, 8 and 24 hours. Erytlrocytes were removed by centrifugation at 5000×g for 10 minutes at 4° C. and blood plasma was stored at −20° C. After thawing the plasma samples, liquid-liquid extraction (hexane/diethylether) was employed to prepare the E4-containing plasma samples for HPLC analysis (Perkin Elmer 200) and tandem mass spectrometry using a PE Sciex 3000 tandem mass spectrometer and APCI interface. With each sample batch, a calibration curve with 6 calibrators was recorded. The calibration curve was calculated using linear regression (correlation coefficient>0.98), which permitted quantitation of plasma concentrations. For each rat plasma, sampled at different time intervals, data were collected.
Plasma E4 concentration data were analysed with “WinNonLin, edition 3.1” and involved pharmacokinetic parameters for Cmax, half-life and AUC0-24.

Another data set has as its target T1, human ERβ (Homo sapiens, UniProt Q92731).
T1 construct: made in house; host or cells: Sf9 insect cells
The data set can be described thus: Competitive steroid binding assay, ERβ. The note with it: read-out: Percent inhibition of specific binding in ERβ steroid binding assay; for inhibition at 0.03 µM: E4 0.03 μM; for inhibition at 0.1 µM: E4 0.1 μM; for inhibition at 0.3 µM: E4 0.3 μM; for inhibition at 1 µM: E4 1 μM.

A further data set concerns postmenopausal women. As to the kind of experiment: Clinical study of libido in postmenopausal women. To be noted: 4 months. In kind it is in vivo, human. The method, then: In a baseline cycle, coitus frequency and sexual satisfaction (female orgasm) are recorded.
Each participant receives blinded medication in 2 differently labeled bottles, filled with tablets. One bottle comprises tablets that contain 2 mg estetrol, whilst the other bottle contains identical placebo tablets. The participants are allowed to choose from which bottle to take a tablet, but are instructed not to use more than 1 tablet per 24 hours and not more than 2 tablets a week. The total duration of the study is 4 months.

The conditions of data set [2]: tritium labeled, intravenous, two adult women; cited from earlier work.
Data set [3] relates to human breast cancer cells (MCF-7). The note with it: MCF-7, long term tissue culture; cited from earlier work.
For the next data set, the system named is uterus. The note with it: continuous administration from a subcutaneous depot; cited from earlier work.
Data set [4] has as its system estrogen receptors in the human endometrium. The note with it: Tseng et al., 1978; cited from earlier work.
Data set [5] addresses T2, rat uterine nuclear estrogen receptor (Rattus norvegicus, UniProt P06211).
T2 construct: rat uterine cytosol estrogen receptor; host or cells: rat uterus (cytosol / nuclear fraction)
T2 sequence (P06211 1-600): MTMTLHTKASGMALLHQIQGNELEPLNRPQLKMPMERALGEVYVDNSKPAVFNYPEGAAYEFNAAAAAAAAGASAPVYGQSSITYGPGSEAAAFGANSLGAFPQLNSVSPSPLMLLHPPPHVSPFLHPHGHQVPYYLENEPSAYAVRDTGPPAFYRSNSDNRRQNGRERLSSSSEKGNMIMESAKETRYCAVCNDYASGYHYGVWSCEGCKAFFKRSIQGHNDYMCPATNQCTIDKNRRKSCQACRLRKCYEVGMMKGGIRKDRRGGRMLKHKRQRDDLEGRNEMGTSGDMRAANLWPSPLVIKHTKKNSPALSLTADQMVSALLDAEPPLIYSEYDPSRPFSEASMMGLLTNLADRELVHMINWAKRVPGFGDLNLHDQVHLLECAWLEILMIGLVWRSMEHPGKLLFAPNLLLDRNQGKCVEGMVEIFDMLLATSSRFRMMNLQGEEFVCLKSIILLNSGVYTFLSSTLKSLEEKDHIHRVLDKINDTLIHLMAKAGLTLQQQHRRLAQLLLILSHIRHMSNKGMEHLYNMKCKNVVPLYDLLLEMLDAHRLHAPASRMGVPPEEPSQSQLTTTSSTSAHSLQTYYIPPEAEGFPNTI
The note with it: cited from earlier work.

Like-named read-outs stand apart in the source and are kept apart here.

T1 sequence (Q92731 whole entry): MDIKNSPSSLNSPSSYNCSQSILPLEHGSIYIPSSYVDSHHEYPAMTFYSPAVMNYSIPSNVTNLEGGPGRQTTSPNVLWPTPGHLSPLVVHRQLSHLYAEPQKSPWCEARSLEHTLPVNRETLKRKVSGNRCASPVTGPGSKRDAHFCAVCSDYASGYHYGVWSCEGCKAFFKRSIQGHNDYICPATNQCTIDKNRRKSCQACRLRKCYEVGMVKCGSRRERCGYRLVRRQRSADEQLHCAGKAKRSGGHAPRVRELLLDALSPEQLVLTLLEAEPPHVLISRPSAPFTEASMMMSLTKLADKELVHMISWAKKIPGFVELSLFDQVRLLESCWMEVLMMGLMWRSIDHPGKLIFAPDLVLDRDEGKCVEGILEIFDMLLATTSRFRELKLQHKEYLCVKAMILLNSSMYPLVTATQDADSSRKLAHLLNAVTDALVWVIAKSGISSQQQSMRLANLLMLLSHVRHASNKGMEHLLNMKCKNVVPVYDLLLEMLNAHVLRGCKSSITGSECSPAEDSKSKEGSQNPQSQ

As a reminder, the half-life is the time needed for the level to fall by half in the phase considered. A high value points to slow loss. The inhibition is the drop in the measured response relative to a control, in per cent. With `C[C@]12CC[C@@H]3c4ccc(O)cc4CC[C@H]3[C@@H]1[C@@H](O)[C@@H](O)[C@@H]2O` [E4, 1,3,5(10)-estratrien-3,15α,16α,17β-tetrol], the half-life in data set [1] (other: subcutaneous and oral, sc and po single dose) lay in the range of 120 to 180 min. Also, in data set [1] (single dose 5.0 mg/kg, read-out: oral bioavailability relative to sc administered E4), the bioavailability fell in the range of 30 to 60%. Further, the bioavailability in data set [1] (single dose 0.05, 0.5 mg/kg, read-out: oral bioavailability relative to sc administration) was in the range of 80 to 100%. Moreover, at human ERβ (Test 1), the inhibition at 0.03 µM was 19%, the inhibition at 0.1 µM was found to be 56%, the inhibition at 0.3 µM worked out at 74% and the inhibition at 1 µM was 87%. On human ERβ (Test 2), the inhibition at 0.03 µM amounted to 25%, the inhibition at 0.1 µM turned out to be 54%, the inhibition at 0.3 µM turned out to be 74% and the inhibition at 1 µM came to 90%. Moreover, at human ERβ (Test 3), the inhibition at 0.03 µM amounted to 30%, the inhibition at 0.1 µM worked out at 50%, the inhibition at 0.3 µM was 77% and the inhibition at 1 µM was found to be 95%. In addition, in the data set on postmenopausal women (blinded free choice between two bottles), the “use of estetrol containing tablets versus placebo tablets” value is “significantly more”. Besides, the “libido and sexual enjoyment in comparison to baseline” value in the data set on postmenopausal women (oral 2 mg tablets on demand, postmenopausal women) is “improved libido and sexual enjoyment”. Moreover, in the data set on postmenopausal women (oral 2 mg tablets, max 2 tablets a week), the undesirable side-effects result is given as “no undesirable side-effects are reported”. Further, in data set [2], the excretion result is “rapidly and completely excreted in urine as the glucosiduronate”; the metabolism result is recorded as “virtually no metabolism except for conjugation”. In data set [3], the “agonistic potency relative to 17β-estradiol in in vitro cell proliferation” value is 2%. The uterotrophic activity result in the data set on uterus is on record as “very weak uterotrophic activity”. In data set [4], the “relative binding to estrogen receptors, of 17β-estradiol” value is on record as 1.5%. In addition, the “relative binding affinity, of 17β-estradiol (100%)” value in data set [5] is listed as 0.3%.

Values taken from US7723320B2, “Use of estrogen compounds to increase libido in women” (Pantarhei Bioscience B.V., priority 2001, dated 2010).
